Patent US10760065B2, “Tuning microbial populations with programmable nucleases” (priority 2013, dated 2020)
≈ marks a conversion by molar mass, not a printed value.

How the values were obtained:
[1] = test system: EMG2 gyrAD87G; assay: MIC determination by broth microdilution; format: cell-based, E. coli; conditions: strain EMG2 gyrAD87G, LB broth; for MIC: Escherichia coli, read-out: Minimum Inhibitory Concentration (MIC)
Procedure: (§1) MICs were determined by broth microdilution using LB broth according to the CLSI guidelines (Clinical and Laboratory Standards Institute. Methods for Dilution Antimicrobial Susceptibility Tests for Bacteria That Grow Aerobically; Approved Standard—Seventh Edition. 64 (2006)).

[2] = test system: EMG2 pSHV-18; assay: MIC determination by broth microdilution; format: cell-based, E. coli; conditions: strain EMG2 pSHV-18, LB broth; for MIC: Escherichia coli, read-out: Minimum Inhibitory Concentration (MIC)
Procedure: as §1

[3] = test system: EMG2 pNDM-1; assay: MIC determination by broth microdilution; format: cell-based, E. coli; conditions: strain EMG2 pNDM-1, LB broth; for MIC: Escherichia coli, read-out: Minimum Inhibitory Concentration (MIC)
Procedure: as §1

[4] = test system: EMG2 Wild-Type; assay: microbe, parasite or virus in culture; format: cell-based, E. coli; conditions: strain EMG2 Wild-Type, LB broth; for MIC: Escherichia coli, read-out: Minimum Inhibitory Concentration (MIC)
Procedure: as §1

[5] = test system: EHEC strain; assay: Antibiotic susceptibility of the EHEC strain; format: cell-based, E. coli
[6] = test system: EHEC; assay: Galleria mellonella infection model, survival; format: in vivo; conditions: ΦRGNeae MOI ~30; chloramphenicol or carbenicillin 32 mg/kg; Log-rank p<0.05
Procedure: Galleria mellonella larvae were injected with either PBS (uninfected) or approximately 4×10^5 colony forming units (CFU) of EHEC. […] Survival curves represent an aggregate of four independent experiments, each with 20 worms per treatment group (n=80). […] G. mellonella larvae (n=40) were injected with PBS or approximately 3×10^5 colony forming units (CFU) of EHEC. Larvae were subsequently treated with PBS, ΦRGNeae at MOI ˜30, chloramphenicol, or carbenicillin. The antibiotics were both applied at a concentration of 32 mg/kg, corresponding to the CLSI resistance breakpoints for Enterobacteriaceae (32 μg/mL).
Larvae of the model organism Galleria mellonella (Desbois, A. P. & Coote, P. J. Adv. Appl. Microbiol. 78, 25-53 (2012)) were purchased from Vanderhorst Wholesale, Inc. (St. Marys, Ohio, USA) and received in the final larval instar for survival assays. Larvae were removed from food source, allowed to acclimate for at least 24 h at room temperature in the dark, and used within 4 days of receipt. […] Larvae were incubated at 37° C. and survival was monitored at 12 hour intervals for 72 hours, with death indicated by lack of movement and unresponsiveness to touch (Desbois, A. P. & Coote, P. J. Adv. Appl. Microbiol. 78, 25-53 (2012)). Kaplan-Meier survival curves were generated on the data pooled from four independent experiments and analyzed with the log-rank test using GraphPad Prism.

Compound	MIC [1] [µg/mL]	MIC [2] [µg/mL]	MIC [3] [µg/mL]	MIC [4] [µg/mL]	further results
CC1(C)S[C@@H]2[C@H](NC(=O)[C@H](N)c3ccccc3)C(=O)N2[C@H]1C(=O)O [AMP, ampicillin]	4 (≈ 11.4 µM)	64 (≈ 183 µM)	> 64	2 (≈ 5.72 µM)	
CC(C)(O/N=C(\C(=O)N[C@@H]1C(=O)N2C(C(=O)[O-])=C(C[n+]3ccccc3)CS[C@H]12)c1csc(N)n1)C(=O)O [CAZ, ceftazidime]		1 (≈ 1.83 µM)	> 64	0.25 (≈ 0.457 µM)	
CO/N=C(\C(=O)N[C@@H]1C(=O)N2C(C(=O)O)=C(COC(C)=O)CS[C@H]12)c1csc(N)n1 [CTX, cefotaxime]	≤ 0.0625	0.25 (≈ 0.549 µM)	> 64	≤ 0.0625	
C[C@@H](O)[C@H]1C(=O)N2C(C(=O)O)=C(SCCN=CN)C[C@H]12 [IPM, imipenem]			32 (≈ 107 µM)	0.25 (≈ 0.835 µM)	
CC1COc2c(N3CCN(C)CC3)c(F)cc3c(=O)c(C(=O)O)cn1c23 (stereo not shown) [OFX, ofloxacin]	0.5 (≈ 1.38 µM)			0.125 (≈ 0.346 µM)	
CC1(C)S[C@@H]2[C@H](NC(=O)C(C(=O)O)c3ccccc3)C(=O)N2[C@H]1C(=O)O (stereo partly shown) [carbenicillin]					susceptibility of EHEC strain [5]: susceptible; survival of EHEC-infected larvae, comparison with antibiotics [6]: superior to ΦRGNeae treatment
O=C(N[C@H](CO)[C@H](O)c1ccc([N+](=O)[O-])cc1)C(Cl)Cl [chloramphenicol]					susceptibility of EHEC strain [5]: resistant
gentamicin					Minimum Inhibitory Concentration (MIC) [1]: 4 µg/mL; Minimum Inhibitory Concentration (MIC) [2]: >64 µg/mL; Minimum Inhibitory Concentration (MIC) [3]: >64 µg/mL; Minimum Inhibitory Concentration (MIC) [4]: 4 µg/mL
